Source: patent US20100041089A1, “IMPROVED METHOD FOR DETECTING CHEMICAL […]” (priority 2006, published 2010)

Tested on: yeast genes (expressed mRNA)
Experiment: DNA chip measurement of expressed mRNA of yeast genes after culture with a toxic chemical substance
Assay type: cell-based, Saccharomyces cerevisiae S288C
Conditions: for level of expressed mRNA in the presence of chemical substance / level in the absence of chemical substance: cultured two hours with the chemical substance
Protocol: Yeast (Saccharomyces cerevisiae S288C (a SUC2mal mel gap2 CUP1)) were cultured at 25° C. on YPD medium (yeast extract 1%, polypeptone 2%, glucose 2%). One of toxic chemical substances was added to the cell at logarithmic growth phase, and the cell was further cultured for two hours. Cell was cultured without any chemical substance in the same condition, and was used as a control. Concentrations of the chemical substances were defined to inhibit the growth of the yeast but not lead to death.
After the completion of cultivation, the culture was centrifuged to collect the cells. To the cells, sodium acetate buffer (50 mM sodium acetate, 10 mM EDTA, 1% SDS) was added, and the mixture was shaken at 65° C. for five minutes, followed by returning to room temperature, and obtaining the supernatant, which procedure was repeated two times. To the supernatant, ½ amount of a solution of phenol/chloroform (1:1) was added, and the mixture was centrifuged to give a supernatant, an equal amount of chloroform was added, and the mixture was centrifuged to give a supernatant. To the supernatant, an equal amount of isopropanol containing 0.3 M sodium acetate was added, and the mixture was allowed to stand at room temperature for 30 minutes, after which the mixture was centrifuged to give sediment of the whole RNAs. Seventy % ethanol was added to the sediment, and the mixture was again centrifuged to give sediment, which was then dried and dissolved in water. mRNA was isolated from the whole RNAs as followings. In view of the fact that a poly A chain is attached to the 3′ terminus of mRNA, a polynucleotide having a poly T structure which was immobilized on the surface of latex beads was used to trap the mRNA, and then the mRNA was washed and eluted with spine column (Oligotex-dT30<Super>mRNA Purification Kit, Takara). Reverse transcription of the mRNA was conducted with a reverse transcriptase (Super Script II Reverse Transcriptase; catalogue No. 18064-014, GibcoBRL) using fluorescence-labeled nucleotides to give cDNAs that were introduced with Cy3-dUTP or Cy5-dUTP during the reverse transcription.
The labeled cDNAs were dissolved in TE buffer (10 mM Tris-HCl/1 mM EDTA, pH 8.0), and the solution was dropped on the DNA chip containing the whole genes of yeast (DNA Chip Research Inc. Japan) so that the cDNAs were hybridized on the DNA chip at 65° C. for over 12 hours. The fluoresces intensity of the DNA chip was read with a scanner, and the ratio relative to the fluorescence intensity resulting from the absence of chemical substance was estimated as the following, which is shown in Tables 1 to 9.
In the Tables, “Intensity” indicated in the rightmost column is a value of the level of expressed mRNA of each gene in control cells as divided by the average level of the expressions of the whole genes. A gene of which mRNA level is lower in control, and is higher in cases of addition of chemical substance, is especially useful in the detection of toxic substances.
Here, when a ratio of an amount of mRNA expressed in the presence of the chemical substance to an amount of mRNA expressed in the absence of the chemical substance is two or more, then it is considered significant.

SMILES: C[S+](C)[O-] [(15), Dimethyl sulfoxide]
- level of expressed mRNA in the presence of chemical substance / level in the absence of chemical substance (yeast gene YNL176C): 0.8
- level of expressed mRNA in the presence of chemical substance / level in the absence of chemical substance (yeast gene YNL194C): 0.5
- level of expressed mRNA in the presence of chemical substance / level in the absence of chemical substance (yeast gene YNL200C): 0.8
- The level of expressed mRNA in the presence of chemical substance/The level of expressed mRNA in the absence of chemical substance (yeast gene YNL241C, cultured for two hours with substance): 7.0
- level of expressed mRNA in the presence of chemical substance / level in the absence of chemical substance (yeast gene YNL253W): 0.5
- level of expressed mRNA in the presence of chemical substance / level in the absence of chemical substance (yeast gene YNL276C): 0.5
- level of expressed mRNA in the presence of chemical substance / level in the absence of chemical substance (yeast gene YNR051C): 1.2
- The level of expressed mRNA in the presence of chemical substance/The level of expressed mRNA in the absence of chemical substance (yeast gene YNR074C, cultured two hours with substance): 0.8
- level of expressed mRNA in the presence of chemical substance / level in the absence of chemical substance (yeast gene YOL026C): 0.9
- The level of expressed mRNA in the presence of chemical substance/The level of expressed mRNA in the absence of chemical substance (yeast gene YOR007C, cultured two hours with substance): 1.3
- level of expressed mRNA in the presence of chemical substance / level in the absence of chemical substance (yeast gene YOR022C): 0.8
- The level of expressed mRNA in the presence of chemical substance/The level of expressed mRNA in the absence of chemical substance (yeast gene YOR049C, cultured two hours with substance): 1.3
- level of expressed mRNA in the presence of chemical substance / level in the absence of chemical substance (yeast gene YOR087W): 0.8
- level of expressed mRNA in the presence of chemical substance / level in the absence of chemical substance (yeast gene YOR138C): 1.0
- The level of expressed mRNA in the presence of chemical substance/The level of expressed mRNA in the absence of chemical substance (yeast gene YOR152C, cultured two hours with substance): 3.6
- The level of expressed mRNA in the presence of chemical substance/The level of expressed mRNA in the absence of chemical substance (yeast gene YOR187W, mitochondria-located protein gene, cultured two hours with substance): 1.3
- The level of expressed mRNA in the presence of chemical substance/The level of expressed mRNA in the absence of chemical substance (yeast gene YOR215C, cultured two hours with substance): 0.8
- The level of expressed mRNA in the presence of chemical substance/The level of expressed mRNA in the absence of chemical substance (yeast gene YOR248W, cultured two hours with substance): 8.8
- level of expressed mRNA in the presence of chemical substance / level in the absence of chemical substance (yeast gene YOR253W): 1.1
- level of expressed mRNA in the presence of chemical substance / level in the absence of chemical substance (yeast gene YOR267C): 1.3
- level of expressed mRNA in the presence of chemical substance / level in the absence of chemical substance (yeast gene YOR325W): 0.7
- The level of expressed mRNA in the presence of chemical substance/The level of expressed mRNA in the absence of chemical substance (yeast gene YOR382W, cultured two hours with substance): 2.1
- The level of expressed mRNA in the presence of chemical substance/The level of expressed mRNA in the absence of chemical substance (yeast gene YOR386W, mitochondria-located protein gene, cultured two hours with substance): 1.3
- level of expressed mRNA in the presence of chemical substance / level in the absence of chemical substance (yeast gene YPL005W): 1.2
- The level of expressed mRNA in the presence of chemical substance/The level of expressed mRNA in the absence of chemical substance (yeast gene YPL087W, cultured two hours with substance): 1.3
- level of expressed mRNA in the presence of chemical substance / level in the absence of chemical substance (yeast gene YPL150W): 1.1
- level of expressed mRNA in the presence of chemical substance / level in the absence of chemical substance (yeast gene YPL152W): 2.3
- level of expressed mRNA in the presence of chemical substance / level in the absence of chemical substance (yeast gene YPL168W): 0.8
- level of expressed mRNA in the presence of chemical substance / level in the absence of chemical substance (yeast gene YPL180W): 0.7
- level of expressed mRNA in the presence of chemical substance / level in the absence of chemical substance (yeast gene YPL188W): 0.8
- The level of expressed mRNA in the presence of chemical substance/The level of expressed mRNA in the absence of chemical substance (yeast gene YPL206C, cultured two hours with substance): 0.8
- level of expressed mRNA in the presence of chemical substance / level in the absence of chemical substance (yeast gene YPL221W): 1.0
- level of expressed mRNA in the presence of chemical substance / level in the absence of chemical substance (yeast gene YPL225W): 0.9
- The level of expressed mRNA in the presence of chemical substance/The level of expressed mRNA in the absence of chemical substance (yeast gene YPR014C, cultured two hours with the substance): 0.9
- The level of expressed mRNA in the presence of chemical substance/The level of expressed mRNA in the absence of chemical substance (yeast gene YPR023C, cultured two hours with substance): 0.8
- The level of expressed mRNA in the presence of chemical substance/The level of expressed mRNA in the absence of chemical substance (yeast gene YPR037C, mitochondria-located protein gene, cultured two hours with substance): 4.1
- level of expressed mRNA in the presence of chemical substance / level in the absence of chemical substance (yeast gene YPR049C): 1.5
- level of expressed mRNA in the presence of chemical substance / level in the absence of chemical substance (yeast gene YPR146C): 0.9
- level of expressed mRNA in the presence of chemical substance / level in the absence of chemical substance (yeast gene YPR148C): 1.7
- level of expressed mRNA in the presence of chemical substance / level in the absence of chemical substance (yeast gene YPR172W): 1.5
